Reference: patent US7713958B2, “Compounds and compositions as protein kinase inhibitors” (IRM LLC, priority 2003, dated 2010)

Legend:
Format in all cases: biochemical
[1] = molecular target: c-Abl (Homo sapiens, UniProt P00519); test: Kinase inhibition at 10 μM, c-Abl; settings: 10 μM of Compound; read-out: Percentage Inhibition of c-Abl
[2] = molecular target: c-src (Homo sapiens, UniProt P12931); test: Kinase inhibition at 10 μM, c-src; settings: 10 μM of Compound; read-out: Percentage Inhibition of c-src
[3] = molecular target: CDK1 (Homo sapiens, UniProt P06493); test: Kinase inhibition at 10 μM, CDK1; settings: 10 μM of Compound; read-out: Percentage Inhibition of CDK1
[4] = molecular target: T1, Flt-3 (Homo sapiens, UniProt P36888); test: Kinase inhibition at 10 μM, Flt-3; settings: 10 μM of Compound; read-out: Percentage Inhibition of Flt-3
T1 sequence (P36888 27-993): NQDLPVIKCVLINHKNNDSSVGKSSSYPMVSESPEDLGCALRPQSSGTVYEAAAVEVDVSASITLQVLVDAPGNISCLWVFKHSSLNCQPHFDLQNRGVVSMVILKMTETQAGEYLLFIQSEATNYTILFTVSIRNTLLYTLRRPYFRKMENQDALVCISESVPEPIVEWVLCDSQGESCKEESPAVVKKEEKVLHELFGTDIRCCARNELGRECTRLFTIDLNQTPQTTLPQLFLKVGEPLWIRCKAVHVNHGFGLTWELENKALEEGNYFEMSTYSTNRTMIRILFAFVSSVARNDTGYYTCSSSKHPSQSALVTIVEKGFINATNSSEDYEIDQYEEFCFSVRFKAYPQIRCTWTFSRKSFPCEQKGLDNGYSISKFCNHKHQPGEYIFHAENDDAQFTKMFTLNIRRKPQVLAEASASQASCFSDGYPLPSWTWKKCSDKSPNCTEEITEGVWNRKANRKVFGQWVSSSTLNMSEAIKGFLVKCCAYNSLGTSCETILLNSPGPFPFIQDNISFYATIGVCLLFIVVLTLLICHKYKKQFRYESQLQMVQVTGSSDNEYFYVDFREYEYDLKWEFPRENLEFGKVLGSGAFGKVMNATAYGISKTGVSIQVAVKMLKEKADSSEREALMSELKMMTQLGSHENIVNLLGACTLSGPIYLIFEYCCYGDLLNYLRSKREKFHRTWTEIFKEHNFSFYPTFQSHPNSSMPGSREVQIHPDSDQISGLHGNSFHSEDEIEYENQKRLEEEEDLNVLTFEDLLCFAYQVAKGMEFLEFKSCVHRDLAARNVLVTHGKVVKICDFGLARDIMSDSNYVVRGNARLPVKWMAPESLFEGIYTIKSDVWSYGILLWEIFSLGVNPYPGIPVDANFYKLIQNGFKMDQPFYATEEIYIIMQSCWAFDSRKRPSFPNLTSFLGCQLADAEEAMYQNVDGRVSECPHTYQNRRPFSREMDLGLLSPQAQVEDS

[5] = molecular target: Tek (Homo sapiens, UniProt Q02763); test: Kinase inhibition at 10 μM, Tek; settings: 10 μM of Compound; read-out: Percentage Inhibition of Tek
[6] = molecular target: Flt-1 (Homo sapiens, UniProt P17948); test: Kinase inhibition at 10 μM, Flt-1; settings: 10 μM of Compound; read-out: Percentage Inhibition of Flt-1
[7] = molecular target: IGF-1R (Homo sapiens, UniProt P08069); test: Kinase inhibition at 10 μM, IGF-1R; settings: 10 μM of Compound; read-out: Percentage Inhibition of IGF-1R
[8] = molecular target: PDGFR-β (Homo sapiens, UniProt P09619); test: Kinase inhibition at 10 μM, PDGFR-β; settings: 10 μM of Compound; read-out: Percentage Inhibition of PDGFR-β
[9] = molecular target: c-Kit (Homo sapiens, UniProt P10721); test: Kinase inhibition at 10 μM, c-Kit; settings: 10 μM of Compound; read-out: Percentage Inhibition of c-Kit
[10] = molecular target: KDR (Homo sapiens, UniProt P35968); test: Kinase inhibition at 10 μM, KDR; settings: 10 μM of Compound; read-out: Percentage Inhibition of KDR
[11] = molecular target: c-Met (Homo sapiens, UniProt P08581); test: Kinase inhibition at 10 μM, c-Met; settings: 10 μM of Compound; read-out: Percentage Inhibition of c-Met
[12] = molecular target: FGFR-1 (Homo sapiens, UniProt P11362); test: Kinase inhibition at 10 μM, FGFR-1; settings: 10 μM of Compound; read-out: Percentage Inhibition of FGFR-1

Chain of Tek (Q02763 23-1124, species assumed): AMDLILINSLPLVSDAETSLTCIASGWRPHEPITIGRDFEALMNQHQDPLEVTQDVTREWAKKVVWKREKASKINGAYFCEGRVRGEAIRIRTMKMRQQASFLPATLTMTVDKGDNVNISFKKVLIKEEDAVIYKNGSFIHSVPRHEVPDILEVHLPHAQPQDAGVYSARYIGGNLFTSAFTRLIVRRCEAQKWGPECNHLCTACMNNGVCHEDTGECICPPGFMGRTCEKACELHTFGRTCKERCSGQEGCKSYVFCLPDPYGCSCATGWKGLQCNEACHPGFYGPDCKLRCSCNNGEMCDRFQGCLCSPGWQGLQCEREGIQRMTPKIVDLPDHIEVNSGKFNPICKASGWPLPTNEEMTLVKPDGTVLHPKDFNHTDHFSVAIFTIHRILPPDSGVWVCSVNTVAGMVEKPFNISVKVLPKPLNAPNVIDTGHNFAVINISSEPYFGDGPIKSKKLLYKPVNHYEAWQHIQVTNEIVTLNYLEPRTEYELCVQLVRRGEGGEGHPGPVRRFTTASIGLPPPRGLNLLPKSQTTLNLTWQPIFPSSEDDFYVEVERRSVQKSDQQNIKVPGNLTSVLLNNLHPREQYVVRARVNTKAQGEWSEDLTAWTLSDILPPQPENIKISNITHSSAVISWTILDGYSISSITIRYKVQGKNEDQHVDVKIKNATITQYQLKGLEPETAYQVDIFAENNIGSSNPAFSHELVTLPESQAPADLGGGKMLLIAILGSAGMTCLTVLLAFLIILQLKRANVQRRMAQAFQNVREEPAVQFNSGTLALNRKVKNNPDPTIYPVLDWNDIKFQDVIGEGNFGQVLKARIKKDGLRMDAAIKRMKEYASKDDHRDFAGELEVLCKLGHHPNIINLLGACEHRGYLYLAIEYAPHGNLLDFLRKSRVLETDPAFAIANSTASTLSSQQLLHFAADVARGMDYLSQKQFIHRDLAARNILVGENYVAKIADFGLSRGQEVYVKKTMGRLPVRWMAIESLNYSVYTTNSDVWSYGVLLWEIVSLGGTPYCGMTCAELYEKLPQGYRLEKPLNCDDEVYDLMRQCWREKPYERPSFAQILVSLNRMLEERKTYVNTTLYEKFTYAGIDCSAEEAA
Chain of c-src (P12931 whole entry, species assumed): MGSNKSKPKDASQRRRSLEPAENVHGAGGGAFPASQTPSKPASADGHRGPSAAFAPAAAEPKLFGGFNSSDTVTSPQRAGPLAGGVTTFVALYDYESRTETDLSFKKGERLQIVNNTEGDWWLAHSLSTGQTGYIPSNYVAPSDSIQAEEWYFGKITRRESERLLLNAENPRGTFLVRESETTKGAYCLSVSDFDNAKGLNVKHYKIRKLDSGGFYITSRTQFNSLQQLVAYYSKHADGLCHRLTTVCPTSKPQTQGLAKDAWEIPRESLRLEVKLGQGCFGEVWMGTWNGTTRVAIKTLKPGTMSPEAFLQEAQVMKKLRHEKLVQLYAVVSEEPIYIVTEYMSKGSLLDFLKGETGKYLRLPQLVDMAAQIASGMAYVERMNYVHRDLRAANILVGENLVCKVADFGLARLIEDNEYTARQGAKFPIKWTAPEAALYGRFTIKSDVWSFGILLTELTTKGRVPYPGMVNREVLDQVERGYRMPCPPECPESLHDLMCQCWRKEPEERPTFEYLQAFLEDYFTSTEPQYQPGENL
Chain of CDK1 (P06493 whole entry, species assumed): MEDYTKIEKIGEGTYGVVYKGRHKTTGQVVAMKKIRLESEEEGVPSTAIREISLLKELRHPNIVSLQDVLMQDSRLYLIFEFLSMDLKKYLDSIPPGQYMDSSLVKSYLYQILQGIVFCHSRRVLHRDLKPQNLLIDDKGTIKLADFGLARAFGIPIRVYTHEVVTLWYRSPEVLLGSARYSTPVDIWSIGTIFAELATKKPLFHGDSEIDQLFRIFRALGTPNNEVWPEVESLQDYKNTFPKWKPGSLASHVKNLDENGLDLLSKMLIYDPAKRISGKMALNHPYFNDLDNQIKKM
Chain of CDK1 (P14635 whole entry partner, species assumed): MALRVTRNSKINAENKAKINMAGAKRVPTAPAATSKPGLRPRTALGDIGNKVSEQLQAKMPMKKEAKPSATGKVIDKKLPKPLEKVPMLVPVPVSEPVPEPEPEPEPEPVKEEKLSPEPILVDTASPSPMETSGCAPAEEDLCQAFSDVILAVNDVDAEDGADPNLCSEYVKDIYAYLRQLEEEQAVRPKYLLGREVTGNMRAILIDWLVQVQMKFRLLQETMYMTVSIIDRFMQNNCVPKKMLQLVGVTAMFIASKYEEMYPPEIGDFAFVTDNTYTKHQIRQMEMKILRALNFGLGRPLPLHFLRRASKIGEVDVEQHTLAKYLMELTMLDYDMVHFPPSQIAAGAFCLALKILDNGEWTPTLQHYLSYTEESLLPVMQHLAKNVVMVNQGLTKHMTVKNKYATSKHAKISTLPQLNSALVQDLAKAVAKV
Chain of c-Abl (P00519 whole entry): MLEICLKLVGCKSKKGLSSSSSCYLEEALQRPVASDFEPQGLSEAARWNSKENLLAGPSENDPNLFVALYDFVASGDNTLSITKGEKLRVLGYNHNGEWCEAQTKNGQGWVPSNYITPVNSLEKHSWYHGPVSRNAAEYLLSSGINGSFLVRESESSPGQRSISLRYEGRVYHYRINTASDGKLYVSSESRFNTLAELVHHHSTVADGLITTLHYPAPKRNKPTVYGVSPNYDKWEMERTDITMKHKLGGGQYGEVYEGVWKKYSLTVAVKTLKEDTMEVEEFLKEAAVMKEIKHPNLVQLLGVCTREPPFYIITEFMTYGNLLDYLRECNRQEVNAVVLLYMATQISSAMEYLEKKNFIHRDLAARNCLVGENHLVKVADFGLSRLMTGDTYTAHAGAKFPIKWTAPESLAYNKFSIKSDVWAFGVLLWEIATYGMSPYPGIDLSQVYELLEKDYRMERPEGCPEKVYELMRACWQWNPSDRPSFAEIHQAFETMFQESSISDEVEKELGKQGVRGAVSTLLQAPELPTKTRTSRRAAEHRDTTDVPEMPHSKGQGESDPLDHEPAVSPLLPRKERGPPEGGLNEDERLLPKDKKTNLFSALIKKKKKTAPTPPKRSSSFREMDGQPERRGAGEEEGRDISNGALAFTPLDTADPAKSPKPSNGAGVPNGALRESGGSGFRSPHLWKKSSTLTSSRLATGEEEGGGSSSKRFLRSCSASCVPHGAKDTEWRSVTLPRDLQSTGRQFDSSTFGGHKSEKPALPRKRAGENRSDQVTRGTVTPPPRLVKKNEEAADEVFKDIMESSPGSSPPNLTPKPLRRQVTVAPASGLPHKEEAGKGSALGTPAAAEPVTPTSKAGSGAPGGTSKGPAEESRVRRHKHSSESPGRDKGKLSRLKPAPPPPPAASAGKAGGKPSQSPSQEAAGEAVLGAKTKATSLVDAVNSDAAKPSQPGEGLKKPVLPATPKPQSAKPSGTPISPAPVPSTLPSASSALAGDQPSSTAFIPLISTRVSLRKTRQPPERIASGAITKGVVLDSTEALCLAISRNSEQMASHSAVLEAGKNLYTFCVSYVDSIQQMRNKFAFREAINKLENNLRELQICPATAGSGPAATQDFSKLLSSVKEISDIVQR
Chain of c-Kit (P10721 26-976): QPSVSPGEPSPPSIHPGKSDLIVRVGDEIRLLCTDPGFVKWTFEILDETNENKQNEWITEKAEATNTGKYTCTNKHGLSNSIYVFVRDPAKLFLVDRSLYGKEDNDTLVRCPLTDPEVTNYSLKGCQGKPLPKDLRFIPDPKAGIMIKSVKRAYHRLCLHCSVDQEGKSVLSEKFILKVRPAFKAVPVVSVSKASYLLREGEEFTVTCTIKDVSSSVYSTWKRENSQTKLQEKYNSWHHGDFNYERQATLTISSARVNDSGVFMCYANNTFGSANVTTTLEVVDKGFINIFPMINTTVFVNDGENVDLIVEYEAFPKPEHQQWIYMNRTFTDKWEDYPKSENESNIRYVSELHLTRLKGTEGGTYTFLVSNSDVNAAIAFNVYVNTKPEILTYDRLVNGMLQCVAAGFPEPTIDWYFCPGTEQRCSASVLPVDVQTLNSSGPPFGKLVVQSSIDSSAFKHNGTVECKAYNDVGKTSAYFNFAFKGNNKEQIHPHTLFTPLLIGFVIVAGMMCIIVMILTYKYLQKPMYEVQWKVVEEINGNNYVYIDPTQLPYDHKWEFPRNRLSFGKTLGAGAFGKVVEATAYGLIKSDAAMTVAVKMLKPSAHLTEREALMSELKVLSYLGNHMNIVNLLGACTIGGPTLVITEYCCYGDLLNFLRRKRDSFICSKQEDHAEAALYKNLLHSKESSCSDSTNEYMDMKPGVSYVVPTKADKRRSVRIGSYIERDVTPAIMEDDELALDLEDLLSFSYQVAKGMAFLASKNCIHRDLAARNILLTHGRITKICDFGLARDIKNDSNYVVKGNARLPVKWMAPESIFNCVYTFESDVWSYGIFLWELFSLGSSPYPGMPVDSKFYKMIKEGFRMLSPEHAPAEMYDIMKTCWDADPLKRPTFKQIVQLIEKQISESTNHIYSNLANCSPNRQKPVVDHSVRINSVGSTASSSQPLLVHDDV

Compound | inhibition at 10 µM [1] | inhibition at 10 µM [2] | inhibition at 10 µM [3] | inhibition at 10 µM [4] | inhibition at 10 µM [5] | inhibition at 10 µM [6] | inhibition at 10 µM [7] | inhibition at 10 µM [8] | inhibition at 10 µM [9] | inhibition at 10 µM [10] | inhibition at 10 µM [11] | inhibition at 10 µM [12]
O=C1NCC/C(=N\Nc2ccccn2)c2c1[nH]c1ccc(F)cc21 [Compound 37, 7-fluoro-5-(pyridin-2-yl-hydrazono)-3,4,5,10-tetrahydro-2H-azepino[3,4-b]indol-1-one] | 86% | 90% | 98% | 75% | 81% | 79% | 76% |  |  |  |  | 
O=C1NCC/C(=N\Nc2cccnc2)c2c1[nH]c1ccc(Cl)cc21 [Compound 33, 7-chloro-5-(pyridin-3-yl-hydrazono)-3,4,5,10-tetrahydro-2H-azepino[3,4-b]indol-1-one] |  | 78% | 97% |  | 70% |  |  | 97% |  |  |  | 
O=C1NCC/C(=N\Nc2ccccn2)c2c1[nH]c1ccc(Cl)cc21 [Compound 24, 7-chloro-5-(pyridin-2-yl-hydrazono)-3,4,5,10-tetrahydro-2H-azepino[3,4-b]indol-1-one] | 91% | 92% | 88% | 72% | 73% | 85% | 82% |  | 79% |  |  | 
NS(=O)(=O)c1ccc(N/N=C2\CCNC(=O)c3[nH]c4ccc(Cl)cc4c32)cc1 [Compound 31, 4-[N′-(7-chloro-1-oxo-1,3,4,10-tetrahydro-2H-azepino[3,4-b]indol-5-ylidene)-hydrazino]-benzenesulfonamide] |  |  | 95% |  |  |  |  |  |  |  |  | 
NC1=NC(=O)/C(=C2\CCNC(=O)c3[nH]c4ccc(F)cc4c32)N1 [Compound 12, 5-(2-amino-5-oxo-3,5-dihydro-imidazol-4-ylidene)-7-fluoro-3,4,5,10-tetrahydro-2H-azepino[3,4-b]indol-1-one] |  | 89% | 99% |  |  |  |  |  | 86% | 70% | 74% | 89%
